Source: paper PMC3389674, “Comparison of Soluble Guanylate Cyclase Stimulators and Activators in Models of Cardiovascular Disease Associated with Oxidative Stress” (Frontiers in Pharmacology, 2012)

Legend:
WKY rat isolated aorta = assay: vasodilation of phenylephrine-contracted WKY rat isolated aorta with and without ODQ
Method: Male Wistar Kyoto (WKY; Charles River Laboratories, Inc., Raleigh, NC, USA) were anesthetized with inhaled isoflurane (5% in O2) and euthanized by exsanguination. Thoracic aorta was isolated, cleaned of adherent tissue, cut into 3 mm rings, and suspended in 10 mL organ baths containing Krebs–Henseleit buffer (KHB) of the following composition (mM): NaCl, 112.0; KCl, 4.7; KH2PO4, 1.2; MgSO4, 1.2; CaCl2, 2.5; NaHCO3, 25.0; glucose, 11.0. KHB was maintained at 37°C and aerated with 95%O2:5%CO2 (pH 7.4). Changes in isometric force were measured under 1g optimal resting tension using MLT0201/D force-displacement transducers (Letica, Barcelona, Spain) and recorded digitally (Chart 5.0 software, ADInstruments, Colorado Springs, CO, USA). After a 1 h equilibration period, each tissue was contracted to equilibrium with 60 mM KCl, washed with KHB and allowed to relax to the resting tension. The 60 mM KCl contraction was repeated and subsequent contractile responses were normalized to this second KCl response. Each tissue was then contracted to equilibration with 1 μM phenylephrine, washed with KHB and allowed to relax to the resting tension. In order to further investigate the mechanism by which BAY 60-4552 and GSK2181236A were modulating sGC function, the vasodilatory effects of both compounds were assessed in the presence and absence of ODQ, a heme-site inhibitor of sGC. Following a 20 min pre-treatment with DMSO vehicle (0.1% final concentration, v/v) or ODQ (10 μM), aortae were contracted with 0.3 μM phenylephrine (an approximate EC80 concentration). Once the contractile response to phenylephrine reached a plateau (∼10 min), contractile tone was reversed by adding cumulative concentrations of BAY 60-4552 or GSK2181236A to the tissue baths at log increments (0.1 nM to 10 μM).

SHR-SP = assay: chronic treatment of SHR-SP on high salt/fat diet: survival, blood pressure, renal and cardiac function; format: in vivo, rat; details: for CO (cardiac output) / EDV (end diastolic volume) / EF (ejection fraction) / ESV (end systolic volume) / SV (stroke volume) / LVM/BW (left ventricular mass to body weight ratio): echocardiography after 7 weeks of HSFD; for LVM/BW (left ventricular mass to body weight ratio): HSFD control 3.08 ± 0.06; for survival rate: HSFD control 14%; for urine output: HSFD control 111 ± 21; for MAP: HSFD control 192 ± 10; for effect on MAP compared to the HSFD controls: lower doses: 0.1 mg/kg/day GSK2181236A, 0.3 mg/kg/day BAY 60-4552
Text: The SHR-SP is an established model of genetic hypertension. […] As such, a cohort of HSFD SHR-SP was established as a model of cardiovascular disease associated with chronic oxidative stress in this study.
A subgroup of animals (n = 45) was anesthetized with isoflurane and surgically implanted with radiotelemetry transmitters (PhysioTel PA-C40, Data Sciences International, St. Paul, MN, USA). The transmitter catheter was threaded through the femoral artery into the abdominal aorta. At 11–12 weeks of age, baseline blood pressure and heart rate were measured for 5 days (10 s recordings every 5 min) in normal caging, then rats were acclimated to metabolic caging for a minimum of 48 h before a basal 24 h urine sample and blood were collected. […] The ND group was maintained on normal chow and water throughout the study. […] Rats displaying signs of morbidity which included piloerection, lack of grooming, persistent body weight loss, lethargy, or seizure/convulsions, were promptly euthanized.
Treatments were administered in respective diets starting 1 week after the initiation of HSFD. Urine collections were repeated on weeks 2, 4, 6, and 8 and blood was sampled in the morning after each 24 h collection period for assessment of renal function. Plasma creatinine and urine sodium, microalbumin (MALB), and creatinine were ascertained using an AU640 Chemistry Analyzer (Olympus America, Inc., Center Valley, PA, USA). Plasma compound concentrations were determined as described above.
During week 7, cardiac function and morphometry were evaluated via transthoracic echocardiography. Rats were anesthetized with isoflurane (2–4% induction and 1–3% maintenance). Two-dimensional gray scale images of the left ventricle were obtained in the short axis plane at mid-ventricle level and in the parasternal long axis plane using a GE Vivid 7 system (GE Medical Systems, Milwaukee, WI, USA) and stored as digital cineloops. Pulse wave Doppler recordings from the LV outflow were obtained to determine heart rate. All images were analyzed by a single observer using a GE EchoPac (GE Medical Systems, Milwaukee, WI, USA). LV volumes were calculated as V=5/6(LVA×LVL) where LVA is area of LV chamber from the short axis view and LVL is the LV length from the long axis view at end diastole and end systole. […] Analysis was performed on three to five cardiac cycles.

With `COC(=O)Nc1c(N)nc(-c2nn(Cc3ccccc3F)c3ncccc23)nc1N` [BAY 60-4552] the “reduction of vasodilatory response by ODQ” value (WKY rat isolated aorta; 0.1 μM compound, ODQ 10 μM) was 48%, the “reduction of vasodilatory response by ODQ” value (WKY rat isolated aorta; 1 μM compound, ODQ 10 μM) was 30% and the “reduction of MAP compared to HSFD controls” value (SHR-SP; 3 mg/kg/day for 7 weeks, P > 0.05) was 17 mmHg. For the same compound, the “CO (cardiac output)” value (SHR-SP; HSFD + 0.3 mg/kg/day) was 86 ± 6 mL/min, the “EDV (end diastolic volume)” value (SHR-SP; HSFD + 0.3 mg/kg/day) was 356 ± 21 µL and the “EF (ejection fraction)” value (SHR-SP; HSFD + 0.3 mg/kg/day) was 69 ± 2%. The “ESV (end systolic volume)” value (SHR-SP; HSFD + 0.3 mg/kg/day) was 111 ± 11 µL, the “SV (stroke volume)” value (SHR-SP; HSFD + 0.3 mg/kg/day) was 245 ± 14 µL and the “LVM/BW (left ventricular mass to body weight ratio)” value (SHR-SP; HSFD + 0.3 mg/kg/day) was 3.06 ± 0.07 mg/g. For the same compound, the “CO (cardiac output)” value (SHR-SP; HSFD + 3.0 mg/kg/day) was 89 ± 6 mL/min, the “EDV (end diastolic volume)” value (SHR-SP; HSFD + 3.0 mg/kg/day) was 379 ± 21 µL and the “EF (ejection fraction)” value (SHR-SP; HSFD + 3.0 mg/kg/day) was 67 ± 1%. The “ESV (end systolic volume)” value (SHR-SP; HSFD + 3.0 mg/kg/day) was 120 ± 9 µL, the “SV (stroke volume)” value (SHR-SP; HSFD + 3.0 mg/kg/day) was 259 ± 13 µL and the “LVM/BW (left ventricular mass to body weight ratio)” value (SHR-SP; HSFD + 3.0 mg/kg/day) was 2.85 ± 0.10 mg/g. The survival rate (SHR-SP; HSFD, 0.3 mg/kg/day for 7 week) was 46%, the urine output (SHR-SP; HSFD, 0.3 mg/kg/day for seven weeks) was 79 ± 11 mL/day and the survival rate (SHR-SP; HSFD, 3 mg/kg/day for 7 week) was 69%. It also gave an MAP (SHR-SP; HSFD, 3 mg/kg/day for 7 weeks) of 175 ± 1 mmHg, a urine output (SHR-SP; HSFD, 3.0 mg/kg/day for seven weeks) of 56 ± 10 mL/day and a sodium excretion (SHR-SP; HSFD, 3.0 mg/kg/day, HSFD control 26.4 ± 2.2) of 16 ± 2 mmol/day. For the same compound, the MALB excretion (SHR-SP; HSFD, 3.0 mg/kg/day, HSFD control 282.4 ± 20.2) was 142 ± 42 mg/day and the “effect on MAP compared to the HSFD controls” value (SHR-SP) was “did not have any effect on MAP”.
With `Cc1cc(-c2ccc(OC(F)(F)F)cc2)ccc1COc1ccccc1-c1cccc(-n2ncc(C(=O)O)c2C(F)(F)F)n1` [GSK2181236A, 1-(6-{2-[({3-methyl-4′-[(trifluoromethyl)oxy]-4-biphenylyl}methyl)oxy]phenyl}-2-pyridinyl)-5-(trifluoromethyl)-1H-pyrazole-4-carboxylic acid] the “increase of vasodilatory response by ODQ” value (WKY rat isolated aorta; 0.1 μM compound, ODQ 10 μM) was 41%, the “increase of vasodilatory response by ODQ” value (WKY rat isolated aorta; 1 μM compound, ODQ 10 μM) was 36% and the “increase of vasodilatory response by ODQ” value (WKY rat isolated aorta; 10 μM compound) was 21%. For the same compound, the “reduction of MAP compared to HSFD controls” value (SHR-SP; 1.0 mg/kg/day for 7 week, not significant) was 9 mmHg, the “MALB excretion vs HSFD controls” value (SHR-SP; 0.1 and 1.0 mg/kg/day) was “did not alter” and the “sodium excretion vs HSFD controls” value (SHR-SP; 0.1 and 1.0 mg/kg/day) was “did not alter”. For the same compound, the “urine output vs HSFD controls” value (SHR-SP; 0.1 and 1.0 mg/kg/day) was “did not alter”, the “CO (cardiac output)” value (SHR-SP; HSFD + 0.1 mg/kg/day) was 76 ± 7 mL/min and the “EDV (end diastolic volume)” value (SHR-SP; HSFD + 0.1 mg/kg/day) was 331 ± 29 µL. The “EF (ejection fraction)” value (SHR-SP; HSFD + 0.1 mg/kg/day) was 67 ± 2%, the “ESV (end systolic volume)” value (SHR-SP; HSFD + 0.1 mg/kg/day) was 110 ± 11 µL and the “SV (stroke volume)” value (SHR-SP; HSFD + 0.1 mg/kg/day) was 222 ± 19 µL. The “LVM/BW (left ventricular mass to body weight ratio)” value (SHR-SP; HSFD + 0.1 mg/kg/day) was 2.69 ± 0.08 mg/g, the “CO (cardiac output)” value (SHR-SP; HSFD + 1.0 mg/kg/day) was 80 ± 5 mL/min and the “EDV (end diastolic volume)” value (SHR-SP; HSFD + 1.0 mg/kg/day) was 332 ± 22 µL. For the same compound, the “EF (ejection fraction)” value (SHR-SP; HSFD + 1.0 mg/kg/day) was 71 ± 1%, the “ESV (end systolic volume)” value (SHR-SP; HSFD + 1.0 mg/kg/day) was 98 ± 10 µL and the “SV (stroke volume)” value (SHR-SP; HSFD + 1.0 mg/kg/day) was 234 ± 14 µL. For the same compound, the “LVM/BW (left ventricular mass to body weight ratio)” value (SHR-SP; HSFD + 1.0 mg/kg/day) was 2.82 ± 0.07 mg/g, the survival (SHR-SP; HSFD, 0.1 mg/kg/day for 7 week) was “did not improve survival” and the survival rate (SHR-SP; HSFD, 1.0 mg/kg/day for 7 week) was 69%. The MAP (SHR-SP; HSFD, 1.0 mg/kg/day for 7 week) was 183 ± 7 mmHg and the “effect on MAP compared to the HSFD controls” value (SHR-SP) was “did not have any effect on MAP”.
